Patent publication US5707815A, “Mammalian monocyte chemoattractant protein receptors and assays using them” (Regents of the University of California, priority 1995, dated 1998)
pEC50: −log10 of the molar value.

How the values were obtained:
[1] = test system: undifferentiated human HL-60 cells; assay: MCP-1 induced calcium flux in HL-60 cells; format: cell-based; conditions: undifferentiated HL-60 cells
Method: (§1) Because monocytes are difficult to isolate in usable quantity and express less than 2000 high affinity MCP-1 binding sites per cell, a cultured cell line that responded well to MCP-1 had to be identified. Using the calcium effiux assay as described in Vu, Cell 64:1057-68(1991), MCP-1 induced calcium fluxes in various cell lines were measured. […] In contrast, a dose-dependent calcium flux was detected in MM6 cells, with half maximal stimulation at 4nM MCP-1.

MM6 cells = assay: MCP-1 induced calcium flux in MM6 cells (calcium efflux assay); format: cell-based, human
Method: as §1

MCP-1 receptor = assay: Total inositol phosphate accumulation in MCP-1 receptor transfected 293 cells; format: cell-based, human; conditions: 293 cells stably expressing recombinant MCP-1 receptor
Method: Inositol (1,4,5)-triphosphate (IP3) mobilizes intracellular calcium in response to activation of a wide spectrum of receptors, including many seven-transmembrane-domain receptors. Hung, J. Ceil. Biol. 116:827-32 (1992); Putney, Trends Endocrinol. Metab. 5:256-60 (1994). To investigate this mobilization, total inositol phosphate accumulation was determined as described in Hung, J. Cell Biol. 116:827-32 (1992). HEK-293 cells were grown until confluent in 24-well tissue culture dishes and labeled overnight with 2 uCi/ml [^3 H]myo-inositol (23 Ci/mmol) (New England Nuclear, Boston, Mass.) in inositol-free MEM-EBSS supplemented with 10% dialyzed FCS. Following labeling, the media were removed and the cells were incubated at room temperature for 5-10 min in 0.5 ml of serum-free MEM-EBSS media supplemented with 10 mM HEPES, 1 mg/ml BSA, and 10 mM LiCl. […] The incubation was terminated by removal of the incubation media and addition of 1 ml of ice-cold 20 mM formic acid. Plates were incubated at 4° C. for 30 min before the supernatants were applied to 1-ml Dowex AG1-X8 (100-200 mesh, formate form, from Sigma) chromatography columns. Columns were washed with 8 ml of water followed by 5 ml of 40 mM sodium formate. Total [^3 H]inositol phosphates were eluted with 5 ml of 2M ammonium formate/0.1M formic acid and quantitated by liquid scintillation spectroscopy. […]

For “monocyte chemoattractant protein-1 [MCP-1]”, the “MCP-1 induced calcium flux” value [1] was “No calcium flux was detected”, the pEC50 (MM6 cells; dose-dependent calcium flux, read-out: half maximal stimulation of calcium flux) was 8.40 and the “effect of prior exposure to the chemokine on the calcium response to the other chemokine” value (MM6 cells; label = chemokine given first, MCP-1 versus RANTES (or MIP-1α)) was “partially blocked”. For the same substance, the “hydrolysis of PI (phosphatidylinositol)” value (MCP-1 receptor) was “little, if any”.
